This note sets out measurements from patent publication US9062123B2, “Labelled adrenomedullin derivatives and their use for imaging and therapy” (PLUMOSCIENCE INC., priority 2004, dated 2015).

Where two headings read alike, the source gives them in different places. Ends that are not written are not given here.

For orientation: IC50 means the concentration that inhibits the measured activity by half.

A short description of data set [1]: Plasma kinetics of 99mTc-cyclic AM and 99mTc-linear AM in dogs. It is filed as in vivo, dog. Particulars: two-compartment model.
Protocol: The radiolabelled AM derivatives were injected in a volume of 1.5 mL into a right jugular vein catheter. A series of 200 μl blood samples were collected 1 min after the initial injection, then repeated every 5 min for a 30-min period. After each collection, an equal volume of saline was injected into the animal to maintain blood volume and pressure. The blood samples were then placed in a gamma counter (model 1470 Wizard, Wallac, Finland) to determine ^99mTc activity. Results were expressed as a percentage of total radioactivity injected.
The nature of data set [2]: Plasma kinetics of 125I-rAM(1-50) after single intravenous injection in rats. It is filed as in vivo, rat. Particulars: given 5 min before the 125I-rAM(1-50) bolus. As for the experimental part:
All experimental procedures were performed in accordance with the regulations and ethical guidelines from Canadian Council for the Care of Laboratory Animals, and received approval by the Animal Ethics and Research Committee of the Montreal Heart Institute. Male Sprague-Dawley rats (Charles River), weighing between 400-450 g, were anaesthetized by an initial intramuscular dose of xylazine (10 mg/kg of body weight) and ketamine (50 mg/kg of body weight), followed by an intra-peritoneal injection of heparin (2000 units; Sigma). Catheters were inserted into the right carotid artery and jugular vein. Heart rate and systemic blood pressure were monitored continuously. […] Venous and arterial blood samples (3 ml) were collected and centrifuged (1875 g, 15 min, 4° C.) and the plasma saved for subsequent measurement of irAM (immunoreactive AM). A similar amount of saline was infused into the animals to prevent hypovolaemia.
The animals were then killed and the lungs, liver, kidneys (en bloc with the adrenal glands) and heart were removed and gravity drained. […] Results are expressed as a percentage of total radioactivity injected. […]
Multiple group comparisons were performed by factorial ANOVA, followed, when a significant interaction was found, by the Bonferroni/Dunn t test. […] In the canine experiments, the effect of drugs on AM extraction was analyzed by two-tailed paired Student's t tests. […]

Data set [3] in a line: Biodistribution / organ retention of 125I-rAM(1-50) in rats, with and without antagonists. It is filed as in vivo, rat. Here is the method: The animals were then killed and the lungs, liver, kidneys (en bloc with the adrenal glands) and heart were removed and gravity drained. […] Results are expressed as a percentage of total radioactivity injected.
The drugs were given by either intraarterial (n=10 in each group) or intravenous (n=10 in each group) injection 5 min before the ^125I-rAM(1-50) bolus. Plasma samples and tissues were treated as described above.

Data set [4] in a line: In vivo single-pass pulmonary extraction of 125I-rAM(1-50) in dogs (indicator-dilution). Also noted: species or system dog. Particulars: for single-pass pulmonary extraction of 125I-rAM(1-50) after administration of the substance: dogs, intravenous bolus of 100 nmol, 5 min before. As for the experimental part: Dogs were anaesthetized and prepared as described in detail in reference, which is hereby incorporated by reference. A catheter was inserted into the carotid artery and positioned just above the aortic valve. This catheter was connected to a peristaltic pump for automated blood withdrawal. Another catheter was placed into the jugular vein and positioned in the right ventricular outflow tract to allow bolus injection of the study tracers. A bolus was prepared by adding 3.3 μCi of 125I-rAM(1-50) (2.9 pmol) to 3 ml of Evans-Blue-dye labelled albumin and 0.9% saline to give a final volume of 6 ml. The mixture was separated into three equal parts for the two successive experiments in each animal and to realize dilution-curve standards. A baseline single-bolus indicator-dilution experiment was performed.
The collected samples were processed and indicator-dilution curves constructed and analyzed as described in previously cited reference 13. Cardiac output and mean tracer AM extraction during the pulmonary transit time were computed from the curves. Mean tracer extraction corresponded to the difference between the areas of the outflow curve of the vascular reference (albumin) and that of the extracted tracer (AM). Recirculation of the tracers apparent in the terminal portion of the curves was removed by linear extrapolation of the semi-logarithmic down slopes.

Data set [5] has as its target AM1 (CRLR+RAMP2) receptor, lungs of dogs. Briefly: Displacement of labelled human adrenomedullin in the lungs of dogs. It is filed as binding, dog. Particulars: displacement of labelled hAM.
The conditions of data set [6]: dog, in vivo, iv.
Protocol: Following intravenous injection of linear ^99mTc hAM1-52, dynamic acquisition of the lungs, heart, liver and kidneys was recorded for a 30-min period (one frame/sec during the first minute, then one frame/min for the remaining time). Static acquisitions were also recorded for whole individual organs, including lungs, kidneys, liver, heart, bladder, gallbladder and muzzle, at 30, 60, 120, 240 minutes after initial injection. These recordings were performed both in ventral and dorsal positions. Dynamic and static acquisitions were evaluated by using Matlab version 7.01 image analysis tools software. The ^99mTc total count, ^99mTc mean count, and region of interest (ROI) size were calculated for each organ. Data correction was applied for 1) radioactive decay, 2) table correction (dorsal images only), 3) geometric mean, and 4) organ's attenuation based on transmission factor. Results were expressed as a percentage of total radioactivity injected.
For data set [7] the following is noted: rat, in vivo. The source says: The animals were then sacrificed and the lungs, liver, kidneys (en bloc with the adrenal glands) and heart were removed and gravity drained.
The conditions of data set [8]: dog, in vivo. Here is the method:
FIG. 16 illustrates in vivo single-pass measurement of purified ^99mTc linear hAM1-52 clearance in dogs. Dogs were anesthetized and a catheter was inserted into the carotid artery and positioned just above the aortic valve. This catheter is connected to a peristaltic pump for automated blood withdrawal. Another catheter is placed into the jugular vein and positioned in the right ventricular outflow tract to allow bolus injection of the study tracers. A bolus was prepared by adding 2 mCi of purified ^99mTc linear hAM1-52 to 3 ml of Evans blue dye labeled albumin and 0.9% saline for a final volume of 6 ml. A single bolus indicator-dilution experiment was performed. The collected samples were processed and indicator-dilution curves constructed and analysed. Mean tracer ^99mTc linear hAM1-52 AM extraction during the pulmonary transit time was computed from the curves. Mean tracer extraction corresponds to the difference between the areas of the outflow curve of the vascular reference (albumin) and that of the extracted tracer (^99mTc linear hAM1-52). Recirculation of the tracers apparent in the terminal portion of the curves is removed by linear extrapolation of the semi-logarithmic down slopes.

The nature of data set [9]: Kidney uptake of 99mTc-linear AM in rats with monocrotaline kidney damage. It is filed as in vivo, rat. Particulars: for kidney activity, % of total activity injected: external counting of the organs; for kidney uptake, % of total activity injected: external detection by gamma camera, 30 minutes. Here is the method: Kidney damage was induced by a single intraperitoenal injection of monocrotaline 60 mg/kg in rats. Three weeks later the animal received were anaesthetized and mechanically ventilated. […] By both methods, the activity in the kidneys was expressed as a percentage of the total activity injected.

The conditions of data set [10]: for plasma level: after 10 minutes. Here is the method:
The animals were anesthetized by an initial intra-muscular dose of xylazine (10 mg/kg) and ketamine (50 mg/kg), followed by an intraperitoneal injection of heparin (2000 U, Sigma Chemical Co.). Additional doses of xylazine/ketamine were used if noxious stimuli (hind feet pinching) could elicit nociceptive motor reflexes or changes of the systemic blood pressure.
99mTc-AM-L was injected in a volume of 200 μl (0.3 pmol, 0.5 mCi) into the right jugular vein.
Differences between groups were evaluated by two-tailed independent samples t-tests. Plasma kinetics of ^99mTc-AM-L were analyzed using a two compartments pharmacokinetic model with Prism v4.0 software and the fitted curves were compared using an F test. All values are reported as means±standard deviations.

For data set [11] the following is noted: in vivo. An excerpt:
FIGS. 18 and 19 illustrate respectively images of the lungs of a dog and a rat to which purified ^99mTc linear hAM1-52 has been administered.

The conditions of data set [12]: dog, in vivo. This is another data set of the same source.
Protocol: Following intravenous injection, dynamic acquisition of the lungs, heart, liver and kidneys was recorded for a 30-min period (one frame/sec during the first minute, then one frame/min for the remaining time). Static acquisitions was also recorded for whole individual organs, including lungs, kidneys, liver, heart, bladder, gallbladder and muzzle, at 30, 60, 120, 240 minutes after initial injection. These recordings were performed both in ventral and dorsal positions. Dynamic and static acquisitions were evaluated by using Matlab version 7.01 image analysis tools software. The ^99mTc total count, ^99mTc mean count, and region of interest (ROI) size were calculated for each organ. Data correction was applied for 1) radioactive decay, 2) table correction (dorsal images only), 3) geometric mean, and 4) organ's attenuation based on transmission factor. Results were expressed as a percentage of total radioactivity injected.
The images were acquired using a Siemens dual hear Ecam Gamma camera 120 min after injection of the compound.

Chain of AM1 (CRLR+RAMP2) receptor, lungs of dogs (A0A8I3NWR4 25-462): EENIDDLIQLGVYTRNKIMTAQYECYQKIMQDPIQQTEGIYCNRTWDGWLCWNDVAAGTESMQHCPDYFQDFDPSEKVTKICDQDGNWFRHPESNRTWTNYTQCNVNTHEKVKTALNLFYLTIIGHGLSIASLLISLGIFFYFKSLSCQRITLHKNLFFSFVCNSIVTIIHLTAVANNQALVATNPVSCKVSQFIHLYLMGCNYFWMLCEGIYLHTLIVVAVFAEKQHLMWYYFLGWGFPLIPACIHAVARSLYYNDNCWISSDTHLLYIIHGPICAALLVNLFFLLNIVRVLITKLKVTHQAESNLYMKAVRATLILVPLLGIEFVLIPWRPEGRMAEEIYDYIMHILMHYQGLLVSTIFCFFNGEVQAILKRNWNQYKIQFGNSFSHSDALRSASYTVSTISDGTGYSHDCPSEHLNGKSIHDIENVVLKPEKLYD

Regarding `CC[C@H](C)[C@H](NC(=O)[C@H](CCC(N)=O)NC(=O)[C@H](Cc1c[nH]cn1)NC(=O)[C@H](C)NC(=O)[C@H](CC(C)C)NC(=O)[C@H](CCCCN)NC(=O)[C@H](CCC(N)=O)NC(=O)[C@@H](NC(=O)[C@@H](NC(=O)[C@@H]1CSSC[C@H](NC(=O)CNC(=O)[C@H](Cc2ccccc2)NC(=O)[C@H](CO)NC(=O)[C@H](CCCNC(=N)N)NC(=O)[C@H](CC(C)C)NC(=O)CNC(=O)[C@H](CCC(N)=O)NC(=O)[C@H](Cc2ccccc2)NC(=O)[C@H](CC(N)=O)NC(=O)[C@H](CC(N)=O)NC(=O)[C@H](CCSC)NC(=O)[C@H](CO)NC(=O)[C@H](CCC(N)=O)NC(=O)[C@H](CCCNC(=N)N)NC(=O)[C@H](Cc2ccc(O)cc2)NC(=O)CN(CCN(CCN(CC(=O)O)CC(=O)O)CC(=O)O)CC(=O)O)C(=O)N[C@@H](CCCNC(=N)N)C(=O)N[C@@H](Cc2ccccc2)C(=O)NCC(=O)N[C@@H]([C@@H](C)O)C(=O)N1)[C@@H](C)O)C(C)C)C(=O)N[C@@H](Cc1ccc(O)cc1)C(=O)N[C@@H](CCC(N)=O)C(=O)N[C@@H](Cc1ccccc1)C(=O)N[C@H](C(=O)N[C@@H](CC(=O)O)C(=O)N[C@@H](CCCCN)C(=O)N[C@@H](CC(=O)O)C(=O)N[C@@H](CCCCN)C(=O)N[C@@H](CC(=O)O)C(=O)N[C@@H](CC(N)=O)C(=O)N[C@H](C(=O)N[C@@H](C)C(=O)N1CCC[C@H]1C(=O)N[C@@H](CCCNC(=N)N)C(=O)N[C@@H](CO)C(=O)N[C@@H](CCCCN)C(=O)N[C@H](C(=O)N[C@@H](CO)C(=O)N1CCC[C@H]1C(=O)N[C@@H](CCC(N)=O)C(=O)NCC(=O)N[C@@H](Cc1ccc(O)cc1)C(N)=O)[C@@H](C)CC)C(C)C)[C@@H](C)O` [^99mTc-cyclic AM, metal not drawn], the distribution half-life result in data set [1] is listed as “less than two min”.

Turning to “unlabelled rAM(1-50): unlabelled rat adrenomedullin (1-50), American Peptide (YRQSMNQGSRSTGCRFGTCTMQKLAHQIYQFTDKDKDGMAPRNKISPQGY; ends and bridges not checked; cysteine pairing not given here)”, the “effect on plasma kinetics of radiolabelled rAM(1-50)” value in [2] is on record as “did not modify plasma kinetics”. For the same compound, in data set [3] (given before the tracer), the “effect on amount of 125I-rAM(1-50) retained by the liver, kidneys and heart” value is “significantly increased”; the “effect on lung activity of 125I-rAM(1-50)” value is on record as “important reduction in lung activity”. The “single-pass pulmonary extraction of 125I-rAM(1-50) after administration of the substance” value in data set [4] was found to be 21.9±2.4%. Moreover, in [4] (same dog, second experiment), the “mean extraction of 125I-rAM(1-50) after injection of the substance” value was 12%.

As for “hAM(22-52): C-terminal human AM fragment that blocks the specific AM receptor”, the “effect on plasma kinetics of radiolabelled rAM(1-50)” value in [2] is given as “did not modify plasma kinetics”. For the same compound, in data set [3] (given before the tracer), the “effect on activity of 125I-rAM(1-50) retained in kidneys” value is listed as “elevated the retained activity” and the “effect on biodistribution of 125I-rAM(1-50)” value is listed as “did not significantly modify this distribution”. Besides, in [3] (prior administration), the “effect on pulmonary first-pass retention of 125I-rAM(1-50)” value is “not affected”. Further, the “single-pass pulmonary extraction of 125I-rAM(1-50) after administration of the substance” value in [4] is given as 31.4±3.3%. In data set [5], this compound had an IC50 of 810 nM.

“^99mTc-linear AM: linear hAM(1-52) labelled directly with 99mTc”: in data set [6], the lung retention stood at 24%. Moreover, in [7], the lung retention entry is on record as “significantly retained by lungs”; the route of elimination result was “eliminated by the kidneys (mostly) and the liver”; the thyroid uptake result is “minimal”; the “time for which lung uptake is maintained” value is given as “at least 1 hour”. Further, the “mean single pass extraction by the lung” value in data set [8] amounted to 21%. For the same compound, in data set [9] (control rats), the “kidney activity, % of total activity injected” value is 27%±6% and the “kidney uptake, % of total activity injected” value is 23%±3%. Moreover, in [9] (monocrotaline treated rats), the “kidney activity, % of total activity injected” value is 11%±7% and the “kidney uptake, % of total activity injected” value is listed as 10%±6%. In addition, in data set [10] (PAH (MCT) rats), the plasma level is listed as 2.08±0.65 % ID. Moreover, in data set [10] (control rats), the plasma level came out at 1.25±0.28 % ID. Also, the “plasma levels in PAH compared to control animals” value in [10] (fitted curves, rats) is listed as “approximately two-fold higher”. Moreover, the “pulmonary uptake, image” value in data set [11] (dog) is “relatively specific and homogeneous pulmonary uptake”. In addition, in data set [11] (rat), the “pulmonary uptake, image” value is “relatively specific and homogeneous pulmonary uptake”. For the same compound, in [12], the kidney retention was 20-30% and the “kidney retention, whole body imaging” value is “significantly retained by the kidney”. The “reduction in kidney uptake after MCT” value (MCT versus control rats) is on record as “about 50%”. Moreover, the “heart uptake, ex vivo” value (PAH (MCT) rats) was 0.77±0.46 % ID. For the same compound, under “PAH (MCT) rats, gamma camera, 30 minutes”, the “lung uptake, in vivo biodistribution” value came to 4±1%. For the same compound, the “lung retention, ex vivo” value (PAH (MCT) rats, gamma counter, 30 minutes) is on record as 3±1%. Besides, under “PAH versus control rats”, the “reduction in lung uptake in PAH” value is approximately 70%. Further, where the note is “rat, in vivo”, the “heart uptake, ex vivo” value amounted to 0.18±0.03 % ID and the “lung retention, ex vivo” value came out at 11±2 % ID. For the same compound, the “liver, kidney and bladder activities, MCT group compared to control group” value (rats, 30 minutes) is “increased liver uptake but lower kidney and bladder activities”.
